These results are taken from patent US8580965B2, “Substituted sulfonamide compounds” (Gruenenthal GmbH, priority 2006, dated 2013).

Structures are written as SMILES. Counter-ions that a name gives are not always drawn.

Assay [1] has as its target T1, human B1R receptor (bradykinin 1 receptor) (Homo sapiens, UniProt P46663).
T1 construct: host or cells: CHO K1 cells (hB1R cells)
T1 sequence (P46663 1-353): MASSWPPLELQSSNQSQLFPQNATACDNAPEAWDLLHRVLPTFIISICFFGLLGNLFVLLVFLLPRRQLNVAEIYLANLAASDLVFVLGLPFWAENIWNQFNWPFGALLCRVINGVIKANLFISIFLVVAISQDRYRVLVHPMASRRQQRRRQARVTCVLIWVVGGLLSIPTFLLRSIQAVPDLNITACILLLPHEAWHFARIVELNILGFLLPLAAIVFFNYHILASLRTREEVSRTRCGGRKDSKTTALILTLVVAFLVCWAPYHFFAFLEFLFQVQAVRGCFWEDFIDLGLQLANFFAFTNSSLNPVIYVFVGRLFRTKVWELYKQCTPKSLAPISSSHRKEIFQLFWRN
As to the kind of experiment: FLIPR Ca2+ assay (Fluo-4) on CHO K1 cells stably transfected with the human B1R gene; % activation and % inhibition at 10 μM. Type of assay: cell-based. The note with it: CHO K1 hB1R cells, Ca2+ inflow after 0.5 nM Lys-Des-Arg9-bradykinin; for inhibition at 10 µM: CHO-K1, test substance 10 μM, read-out: B1R antagonism, human [10 μM] % inhibition. The procedure: (§1) The agonistic or antagonistic action of substances can be quantified on the bradykinin receptor 1 (B1R) of the species human and rat with ectopically expressing cell lines (CHO K1 cells) and with the aid of a Ca^2+-sensitive dye (Fluo-4) using a fluorescent imaging plate reader (FLIPR). The indication in % activation is based on the Ca^2+ signal after addition of Lys-Des-Arg^9-bradykinin (0.5 nM) or Des-Arg^9-bradykinin (100 nM). Antagonists result in a suppression of the Ca^2+ influx following administration of the agonist. The % inhibition in comparison with the maximum achievable inhibition is indicated.
(§2) Functional Investigation on the Bradykinin 1 Receptor (B1R)
(§3) The agonistic or antagonistic action of substances can be determined on the bradykinin 1 receptor (B1R) of the human and rat species with the following assay. According to this assay, the Ca^2+ inflow through the channel is quantified with the aid of a Ca^2+-sensitive dyes (Fluo-4 type, Molecular Probes Europe BV, Leiden, The Netherlands) in a fluorescent imaging plate reader (FLIPR, Molecular Devices, Sunnyvale, USA).
(§4) Chinese Hamster Ovary cells (CHO K1 cells) which are stably transfected with the human B1R gene (hB1R cells, Euroscreen s.a., Gosselies, Belgium) or the B1R gene of the rat (rB1R cells, Axxam, Milan, Italy) are used. For functional investigations, these cells are plated-out on black 96-well plates with a clear base (BD Biosciences, Heidelberg, Germany) in a density of 20,000-25,000 cells/well. Overnight, the cells are incubated at 37° C. and 5% CO2 in culture medium (hB1R cells: Nutrient Mixture Ham's F12, Gibco Invitrogen GmbH, Karlsruhe, Germany; rB1R cells: D-MEM/F12, Gibco Invitrogen, Karlsruhe, Germany) with 10 vol. % FBS (foetal bovine serum, Gibco Invitrogen GmbH, Karlsruhe, Germany). On the following day, the cells are loaded with 2.13 μM Fluo-4 (Molecular Probes Europe BV, Leiden, The Netherlands) in HBSS buffer (Hank's buffered saline solution, Gibco Invitrogen GmbH, Karlsruhe, Germany) […] (Sigma-Aldrich, Taufkirchen, Germany) and 10 mM HEPES (Sigma-Aldrich, Taufkirchen, Germany) for 60 min at 37° C. The plates are subsequently washed 2× with HBSS buffer, and HBSS buffer which additionally contains 0.1% BSA (bovine serum albumin; Sigma-Aldrich, Taufkirchen, Germany), 5.6 mM glucose and 0.05% gelatine (Merck KGaA, Darmstadt, Germany) is added. After a further incubation of 20 minutes at room temperature, the plates are inserted into the FLIPR for Ca^2+ measurement. The Ca^2+-dependent fluorescence is measured here before and after addition of substances (λex=488 nm, λem=540 nm). The quantification is effected by measurement of the highest fluorescence intensity (FC, fluorescence counts) over time.
(§5) The FLIPR protocol comprises 2 additions of substance. Test substances (10 μM) are first pipetted on to the cells and the Ca^2+ inflow is compared with the control (hB1R: Lys-Des-Arg^9-bradykinin 0.5 nM; rB1R: Des-Arg^9-bradykinin 100 nM). The value in % activation based on the Ca^2+ signal after addition of Lys-Des-Arg^9-bradykinin (0.5 nM) or Des-Arg^9-bradykinin (100 nM) is obtained therefrom. After incubation for 10 minutes, 0.5 nM Lys-Des-Arg^9-bradykinin (hB1R) or 100 nM Des-Arg^9-bradykinin (rB1R) are applied and the inflow of Ca^2+ is likewise determined. Antagonists lead to a suppression of the Ca^2+ inflow. % inhibition compared with the maximum inhibition which can be achieved is calculated. The compounds show a good activity on the human and on the rat receptor. The following data were determined by way of example: […]

The target of assay [2] is T2, B1R receptor of the rat (bradykinin 1 receptor) (Rattus norvegicus, UniProt P97583).
T2 construct: host or cells: CHO K1 cells (rB1R cells)
T2 sequence (P97583 1-337): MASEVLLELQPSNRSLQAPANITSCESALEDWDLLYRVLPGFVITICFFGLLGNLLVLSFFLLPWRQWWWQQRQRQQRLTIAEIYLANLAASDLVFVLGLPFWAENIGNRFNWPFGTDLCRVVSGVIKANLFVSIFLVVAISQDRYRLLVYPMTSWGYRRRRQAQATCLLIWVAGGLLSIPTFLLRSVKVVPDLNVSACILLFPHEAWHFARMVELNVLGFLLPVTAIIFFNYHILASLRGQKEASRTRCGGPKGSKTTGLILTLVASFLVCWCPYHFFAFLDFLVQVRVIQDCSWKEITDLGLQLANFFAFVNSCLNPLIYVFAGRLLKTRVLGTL
As to the kind of experiment: FLIPR Ca2+ assay (Fluo-4) on CHO K1 cells stably transfected with the B1R gene of the rat; % activation and % inhibition at 10 μM. In kind it is cell-based. Particulars: CHO K1 rB1R cells, Ca2+ inflow after 100 nM Des-Arg9-bradykinin; for inhibition at 10 µM: CHO-K1, test substance 10 μM, read-out: B1R antagonism, rat [10 μM] % inhibition. As for the experimental part:
as §1, §2, §3, §4, §5

Consider `O=C(COCC1CCCCN1S(=O)(=O)c1csc2ccccc12)N1CCC(O)(c2cccnc2)CC1` (centres unmarked) [Example 273, 2-((1-(benzo[b]thiophen-3-ylsulfonyl)piperidin-2-yl)methoxy)-1-(4-hydroxy-4-(pyridin-3-yl)piperidin-1-yl)ethanone], for which the inhibition (in general, the change of the read-out against control, counted positive when it falls) at 10 µM in assay [1] is 103%; in assay [2] it was 101%. With `CN(CCOCC(=O)N1CCC(O)(c2ccccn2)CC1)S(=O)(=O)c1ccc(Cl)s1` [Example 103, 5-chloro-thiophene-2-sulfonic acid {2-[2-(4′-hydroxy-3′,4′,5′,6′-tetrahydro-2′H-[2,4′]bipyridinyl-1′-yl)-2-oxo-ethoxy]-ethyl}-methyl-amide], the inhibition at 10 µM is -9.25% in assay [1] and 19.3% in assay [2]. Taken in the same sequence, the figures for `O=C(COCC1CCN(S(=O)(=O)c2c(Cl)cc(Cl)cc2Cl)C1)N1CCC(O)(Cc2ccccc2)CC1` (centres unmarked) [Example 248, 1-(4-benzyl-4-hydroxypiperidin-1-yl)-2-((1-(2,4,6-trichlorophenylsulfonyl)pyrrolidin-3-yl)methoxy)ethanone] were 40% and 85.1%.

For the compound `COc1cc(C)c(S(=O)(=O)N2CCCC2COCC(=O)N2CCC(O)(c3ccc(Cl)c(C(F)(F)F)c3)CC2)c(C)c1` (centres unmarked) [Example 213, 1-(4-(4-chloro-3-(trifluormethyl)phenyl)-4-hydroxypiperidin-1-yl)-2-((1-(4-methoxy-2,6-dimethylphenylsulfonyl)pyrrolidin-2-yl)methoxy)ethanone], in assay [1] (test substance 10 μM), the “B1R antagonism, human [10 μM] % inhibition” value amounted to 103.55%. The “B1R antagonism, rat [10 μM] % inhibition” value in assay [2] (test substance 10 μM) is recorded as 101.25%. For `Cc1cc(S(=O)(=O)N2CCCCC2CCC(=O)N2CCC(O)(c3cccnc3)CC2)c(C)cc1Cl` (centres unmarked) [Example 111, 3-(1-(4-chloro-2,5-dimethylphenylsulfonyl)piperidin-2-yl)-1-(4-hydroxy-4-(pyridin-3-yl)piperidin-1-yl)propan-1-one hydrochloride], the inhibition at 10 µM in assay [1] stood at 97.8%; in assay [2], 85.9%.

As to `Cc1ccc(F)cc1S(=O)(=O)N(C)CCOCC(=O)N1CCC(O)(c2ccccn2)CC1` [Example 97, 5-fluoro-N-{2-[2-(4′-hydroxy-3′,4′,5′,6′-tetrahydro-2′H-[2,4′]bipyridinyl-1′-yl)-2-oxo-ethoxy]-ethyl}-2,N-dimethyl-phenylsulfonamide], the figures for the inhibition at 10 µM in assay [1] and in assay [2] were 35.4% and 43.2%, respectively. Regarding `Cc1cc(Cl)cc(Cl)c1S(=O)(=O)N(C)CCOCC(=O)N1CCC(O)(c2ccccn2)CC1` [Example 198, 2,4-dichloro-N-(2-(2-(4-hydroxy-4-(pyridin-2-yl)piperidin-1-yl)-2-oxoethoxy)ethyl)-N,6-dimethylphenylsulfonamide], the inhibition at 10 µM in assay [1] was determined as 106%; in assay [2], 99.2%. As to `CN(CCOCC(=O)N1CCC(O)(c2ccc(Cl)cc2)CC1)S(=O)(=O)c1cc(F)cc(F)c1` [Example 93, N-(2-(2-(4-(4-chlorophenyl)-4-hydroxypiperidin-1-yl)-2-oxoethoxy)ethyl)-3,5-difluoro-N-methylphenylsulfonamide], the inhibition at 10 µM is -12.1% in assay [1] and 6.49% in assay [2]. On the same counts, the results for `CN(CCOCC(=O)N1CCC(O)(Cc2ccccc2)CC1)S(=O)(=O)c1c(Cl)cc(Cl)cc1Cl` [Example 9, N-{2-[2-(4-benzyl-4-hydroxy-piperidin-1-yl)-2-oxo-ethoxy]-ethyl}-2,4,6-trichloro-N-methyl-phenylsulfonamide] are 95.7% and 91.1%. Taken in the same sequence, the figures for `COc1cc(C)c(S(=O)(=O)N(C)CCOCCC(=O)N2CCC(O)(c3ccccc3)CC2)c(C)c1` [Example 276, N-(2-(3-(4-hydroxy-4-phenylpiperidin-1-yl)-3-oxopropoxy)ethyl)-4-methoxy-N,2,6-trimethylphenylsulfonamide] were 70.7% and 88.3%.

With `Cc1cc(S(=O)(=O)N2CCCCC2COCC(=O)N2CCC(O)(c3ccc(Cl)c(C(F)(F)F)c3)CC2)c(C)cc1Cl` (centres unmarked) [Example 160, 2-((1-(4-chloro-2,5-dimethylphenylsulfonyl)piperidin-2-yl)methoxy)-1-(4-(4-chloro-3-(trifluoromethyl)phenyl)-4-hydroxypiperidin-1-yl)ethanone], in assay [2], the inhibition at 10 µM turned out to be 105%.

On to `O=C(COCC1CCCCN1S(=O)(=O)c1cc(Cl)sc1Cl)N1CCC(O)(c2ccc(Cl)c(C(F)(F)F)c2)CC1` (centres unmarked) [Example 247, 1-(4-(4-chloro-3-(trifluoromethyl)phenyl)-4-hydroxypiperidin-1-yl)-2-((1-(2,5-dichlorothiophen-3-ylsulfonyl)piperidin-2-yl)methoxy)ethanone], for which, in assay [2], the inhibition at 10 µM worked out at 99.2%. The same measure, in the same setting: the value for `O=C(COCC1CCc2ccccc2N1S(=O)(=O)c1ccc(Cl)c(Cl)c1)N1CCC(O)(c2cccc(F)c2)CC1` (centres unmarked) [Example 145, 2-((1-(3,4-dichlorophenylsulfonyl)-1,2,3,4-tetrahydroquinolin-2-yl)methoxy)-1-(4-(3-fluorophenyl)-4-hydroxypiperidin-1-yl)ethanone] was 77.3%. In the case of `COc1cc(C)c(S(=O)(=O)N2CCC(OCCC(=O)N3CCC(O)(Cc4ccccc4)CC3)C2)c(C)c1` (centres unmarked) [Example 189, 1-(4-benzyl-4-hydroxypiperidin-1-yl)-3-(1-(4-methoxy-2,6-dimethylphenylsulfonyl)pyrrolidin-3-yloxy)propan-1-one], in assay [1], the inhibition at 10 µM worked out at 54.2%. Same read-out and setting: the value for `O=C(COCCN1CCN(S(=O)(=O)c2ccccc2)CC1)N1CCC(O)(Cc2ccccc2)CC1` [Example 32, 2-[2-(4-phenylsulfonyl-piperazin-1-yl)-ethoxy]-1-(4-benzyl-4-hydroxy-piperidin-1-yl)-ethanone] was 6.63%. Take `COc1cc(C)c(S(=O)(=O)N2CCCC(COCC(=O)N3CCC(O)(c4ccc(Cl)c(C(F)(F)F)c4)CC3)C2)c(C)c1` (centres unmarked) [Example 253, 1-(4-(4-chloro-3-(trifluoromethyl)phenyl)-4-hydroxypiperidin-1-yl)-2-((1-(4-methoxy-2,6-dimethylphenylsulfonyl)piperidin-3-yl)methoxy)ethanone]: in assay [2], the inhibition at 10 µM came to 79.9%.
